Patent publication US20240307345A1, “R-MDMA and S-MDMA TO ASSIST PSYCHOTHERAPY” (Universitatsspital Basel, priority 2022, published 2024)
Entries after “also recorded” stand apart in the source; their conditions may differ.

Experiments:
animals = details: various animal studies; cited from earlier work
healthy subjects [1] = assay: Adverse effects (List of Complaints); format: in vivo, human; details: for adverse effects 24 to 72 hours after substance administration: 125 mg, compared with placebo
Protocol: (§1) Study design: The present study compares the acute subjective, physiological and endocrine effects of S-MDMA (125 mg), R-MDMA (125 and 250 mg), MDMA (125 mg) using a placebo-controlled double-blind 5-period cross-over design in 24 healthy subjects. Conditions are 1.) R-MDMA 125 mg, 2). R-MDMA 250 mg, 3) S-MDMA 125 mg, 4) MDMA 125 mg, 5) placebo. Treatment order is counterbalanced. Washout periods between substance administrations are at least 10 days. Study days include a 10-hour study session with a subsequent single measurement (short visit) the next morning (24 hours after drug administration).
Adverse effects (list of complaints): The list of complaints (LC) consists of 66 items offering a global score measuring physical and general discomfort (Zerssen, 1976). The LC is administered before (baseline), at the end of the session to cover effects from 0-9 hours and 24 hours after substance administration to cover aftereffects from 9-24 hours. To assess adverse effects after 24 hours, subjects fill out an additional LC 3 days after the test session, covering adverse effects from 24-72 hours. Subjects are additionally be asked to report any adverse events during the sessions or/and between study sessions as assessed at the beginning of the next session and at the EOS visit. Global LC scores are summed up and compared between treatments using analysis of variance.

healthy subjects [2] = assay: Autonomic effects (blood pressure, heart rate, body temperature); format: in vivo, human
Protocol: as §1
Autonomic measures: Blood pressure, heart rate, and body temperature are recorded at baseline and repeatedly throughout the session. Blood pressure (systolic and diastolic) and heart rate are measured with an automatic oscillometric device. Body temperature is measured with an ear thermometer. Emax is determined for each of the measures and for each study session. These Emax values are then compared between drug conditions using analysis of variance.

healthy subjects [3] = assay: Clinical cross-over study, overall comparison of the substances; format: in vivo, human; details: for dose of more equivalent strength to 125 mg (±)-MDMA: based on the results of the present study; for acute subjective effects and adverse effects: conclusion over the doses tested
Protocol: as §1

[4] = mice; cited from earlier work
healthy subjects [5] = assay: Alteration of mind and mystical-type effects on 5D-ASC and MEQ questionnaires; format: in vivo, human; details: for acute mystical-type experiences on the 5D-ASC scale: 24 subjects
Protocol: as §1
(§2) Psychometric assessments: Visual Analog Scale (VAS): VASs is repeatedly used to assess subjective alterations in consciousness over time. Single scales are presented as 100 mm horizontal lines marked with “not at all” on the left and “extremely” on the right. The following VAS items are used: “any drug effect”, “good drug effect”, “bad drug effect”, “stimulated”, “liking”, “happy”, “content”, “talkative”, “open”, “trust”, “feeling close to others”, “anxiety”, “alteration of vision”, “alterations of hearing”, “sounds seem to influence what I see”, “alteration of sense of time”, “the boundaries between myself and my surroundings seem to blur”, “want to be with other people”, and “want to be alone”. Scales are administered before and repeatedly after substance administration and take approximately 2 minutes to fill out. The maximal ratings (Emax, 0-100) and areas under the effect-time curve (AUEC) are defined for each VAS and Emax and AUEC values compared between treatments using analysis of variance. 5-Dimensions of Altered States of Consciousness (5D-ASC): The 5 Dimensions of Altered States of Consciousness (5D-ASC) Scale is a questionnaire containing visual analog scales for 94 items (Studerus et al., 2010). The instrument contains five scales assessing mood, anxiety, derealization, depersonalization, changes in perception, auditory alterations, and reduced vigilance. The scale is well-validated (Studerus et al., 2010) and used internationally to evaluate effects of many other psychoactive substances. The overall psychedelic experience is reflected by the total […] score. Each item of the scale is scored on a 0-100 mm VAS. The attribution of the individual items to the subscales of the 5D-ASC is analyzed according to (Studerus et al., 2010). The 5D-ASC scale is administered once at the end of the session and subjects are instructed to retrospectively rate peak alterations that have been experienced during the study session. Adiective Mood Rating Scale (AMRS): The Adjective Mood Rating Scale (AMRS or EWL60S) is a 60-item Likert scale that allows repeated assessment of mood in 6 dimensions: Activation, inactivation, well-being, anxiety/depressed mood, extra- and introversion, and emotional excitability. The German EWL60S version is used. The AMRS consists of subscales measuring “activation,” “positive mood,” “extraversion,” “introversion,” “inactivation,” and “emotional excitability. The scale has previously been used to evaluate effects of many other psychoactive substances. Emax and AUEC scores will be defined for each subscale and compared between treatments using analysis of variance. The AMRS is administered repeatedly throughout the study session and once 3 days after each session. States of Consciousness Questionnaire (SCQ): In the SCQ, 100-items are rated on a six-point scale. Forty-three items embedded into this questionnaire comprise the Mystical Experience Questionnaire (MEQ) (MacLean et al., 2011) which is sensitive to the effects of psychedelic substances such as LSD. […]

rodents = details: relative to racemic MDMA; cited from earlier work
healthy subjects [6] = assay: Connectedness subscale of the PES questionnaire; format: in vivo, human
healthy subjects [7] = assay: Mood after effects day 1-3 (BDI score, SCL-90-R GSI score); format: in vivo, human
Protocol: as §1
Psychometric assessments: Visual Analog Scale (VAS): VASs is repeatedly used to assess subjective alterations in consciousness over time. Single scales are presented as 100 mm horizontal lines marked with “not at all” on the left and “extremely” on the right. […] Each item of the scale is scored on a 0-100 mm VAS. The attribution of the individual items to the subscales of the 5D-ASC is analyzed according to (Studerus et al., 2010). […]

mice = details: cited from earlier work
model of PTSD = details: cited from earlier work
healthy subjects [8] = assay: Effects on mood on the Adjective Mood Rating Scale (AMRS); format: in vivo, human
Protocol: as §1, §2

[9] = 125 mg, compared with placebo (and 125 mg R-MDMA)

CN[C@H](C)Cc1ccc2c(c1)OCO2 [R-MDMA, R(−)-MDMA]
social interaction (animals): Increased social interaction
adverse effects 24 to 72 hours after substance administration (healthy subjects [1]): only increased; also recorded: increased number of adverse effects
overall adverse effects (healthy subjects [1]; R-MDMA versus (±)-MDMA): it does not seem that R-MDMA produces overall less adverse effects
body temperature (healthy subjects [2]; 125 mg): did not increase body temperature significantly compared to placebo
body temperature (healthy subjects [2]; 250 mg): increased similarly; also recorded: increased body temperature as much as (±)-MDMA and S-MDMA; also recorded: increased body temperature only moderately
heart rate (healthy subjects [2]; 250 mg, versus placebo): increase heart rate comparably and more than with placebo
cardio and psychostimulant effects / properties (healthy subjects [3]; R-MDMA (125 and 250 mg) compared with S-MDMA): lower cardio and psychostimulant effects; also recorded: less cardiostimulant and psychostimulant properties
dose of more equivalent strength to 125 mg (±)-MDMA (healthy subjects [3]): 300 mg
acute subjective effects and adverse effects (healthy subjects [3]): overall comparable
effect on social interaction and connectedness (healthy subjects [3]; within the dose range tested (125 and 250 mg)): less pronounced
enantiomer converted to the other enantiomer after administration [4]: 3.5%
acute mystical-type experiences on the 5D-ASC scale (healthy subjects [5]; 125 mg): only significantly induced mystical-type effects on the 5D-ASC total score and the “Reductions of vigilance” scale
psychedelic effects on the 5D-ASC and the MEQ questionnaires (healthy subjects [5]; [9]): only significantly induced the 5D-ASC total score and the dimension “Reductions of vigilance” on the 5D-ASC and “positive mood”, “Ineffability” and the MEQ30 total score
acute mystical-type experiences on the 5D-ASC scale (healthy subjects [5]; 250 mg): comparable effects with no significant differences
psychedelic effects on the 5D-ASC and the MEQ questionnaires (healthy subjects [5]; 250 mg, compared with placebo and 125 mg R-MDMA): comparable and overall greater psychedelic effects
potency for locomotor stimulant effects (rodents): clearly less potent than racemic MDMA
ratings of connectedness, difference between conditions (healthy subjects [6]; 250 mg): no difference
mood after administration (healthy subjects [7]; R-MDMA compared with S-MDMA): did not depress mood after administration
duration of discriminative stimulus effects (mice): shortest
conditioned fear when retention of extinction was assessed (model of PTSD): reduced conditioned fear
effects on the AMRS (healthy subjects [8]; 125 mg): comparable effects
AMRS “Extraversion” (healthy subjects [8]; 125 mg R-MDMA versus (±)-MDMA and S-MDMA): less
effects on the AMRS (healthy subjects [8]; 250 mg): comparable effects
AMRS “Introversion” (healthy subjects [8]; 250 mg R-MDMA versus (±)-MDMA): significant more

CN[C@@H](C)Cc1ccc2c(c1)OCO2 [S-MDMA, S(+)-MDMA]
social interaction (animals): only slightly with S-MDMA or not at all
adverse effects 24 to 72 hours after substance administration (healthy subjects [1]): only increased; also recorded: increased number of adverse effects
body temperature (healthy subjects [2]; 125 mg): increased similarly; also recorded: increased body temperature only moderately
increases in blood pressure (healthy subjects [2]; 125 mg S-MDMA versus (±)-MDMA and both doses of R-MDMA): higher increases
heart rate (healthy subjects [2]; 125 mg S-MDMA versus the other substance conditions): only significantly higher compared with 125 mg of R-MDMA
heart rate (healthy subjects [2]; 125 mg, versus placebo): increase heart rate comparably and more than with placebo
dose of more equivalent strength to 125 mg (±)-MDMA (healthy subjects [3]): 100 mg
acute subjective effects and adverse effects (healthy subjects [3]): overall comparable
enantiomer converted to the other enantiomer after administration [4]: 9.9%
acute mystical-type experiences on the 5D-ASC scale (healthy subjects [5]; 125 mg): comparable effects with no significant differences
psychedelic effects on the 5D-ASC and the MEQ questionnaires (healthy subjects [5]; [9]): comparable and overall greater psychedelic effects
potency for locomotor stimulant effects (rodents): mostly equipotent to racemic MDMA
ratings of connectedness, difference between conditions (healthy subjects [6]; 125 mg): no difference
BDI and GSI scores (healthy subjects [7]; 125 mg, one to three days after substance administration): only increased
onset of interoceptive effects (mice; compared with R-MDMA): faster
conditioned fear during extinction training (model of PTSD): reduced conditioned fear during extinction training but not thereafter
effects on the AMRS (healthy subjects [8]; 125 mg): comparable effects
AMRS “Emotional excitation” (healthy subjects [8]; 125 mg S-MDMA versus both doses of R-MDMA): more
